# Values joined by “and” are separate entries in the source; they are usually repeats but may differ in a detail not shown here. Identical values can stand only once. Like-named read-outs stand apart in the source and are kept apart here.
# Columns and labels:
# human P450 51A1 [1] = target: T1, human P450 51A1 (Homo sapiens, UniProt Q16850); assay: Stopped-flow koff measurements of P450 51A1-sterol complexes with ketoconazole trap; format: binding; set-up: made in house; host or cells: Escherichia coli; conditions: 23 °C, 10 μM ketoconazole trap, 1 μM P450 51A1
# T1 sequence (Q16850 1-509): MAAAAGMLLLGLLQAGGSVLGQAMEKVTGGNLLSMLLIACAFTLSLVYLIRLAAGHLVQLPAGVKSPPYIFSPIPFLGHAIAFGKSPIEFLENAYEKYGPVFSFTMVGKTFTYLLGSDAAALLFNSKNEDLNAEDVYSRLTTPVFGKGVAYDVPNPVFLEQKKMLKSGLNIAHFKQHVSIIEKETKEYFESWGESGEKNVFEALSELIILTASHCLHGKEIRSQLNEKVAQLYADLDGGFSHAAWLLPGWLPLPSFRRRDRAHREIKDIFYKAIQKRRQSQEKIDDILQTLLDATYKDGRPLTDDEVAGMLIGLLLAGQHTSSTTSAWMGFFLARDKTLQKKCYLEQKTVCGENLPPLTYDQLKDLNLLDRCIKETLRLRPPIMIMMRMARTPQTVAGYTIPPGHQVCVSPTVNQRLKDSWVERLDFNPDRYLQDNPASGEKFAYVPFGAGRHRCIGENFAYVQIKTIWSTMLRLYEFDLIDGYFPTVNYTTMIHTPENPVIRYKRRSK
# Method: All assays were done at 23 °C in an OLIS-RSM 1000 stopped-flow spectrophotometer, collecting data every 1 ms over a range of 332 to 565 nm with slit widths of 1.24 mm (8 nm bandpass) and gratings with 400 lines/mm and 500 nm blaze. One syringe contained 20 μM ketoconazole dissolved in 100 mM potassium phosphate buffer (pH 7.4). In a preliminary experiment in which this was mixed with an equal volume of 2 μM P450 51A1 (same buffer), the observed rate of binding (ΔA430) was 25 s^−1.
# P450 51A1 (2 μM) was premixed with an equivalent concentration of each of the sterols (in HPCD). Each of these solutions was placed in a drive syringe and rapidly mixed with 20 μM ketoconazole (yielding final concentrations of 1 μM P450 51A1 and 10 μM ketoconazole). The rate of the ΔA430-A390 change was used as the koff rate, that is, the rate at which the sterol left the P450 and allowed it to bind to the trap ligand ketoconazole.
# human P450 51A1 [2] = assay: Kinetic modeling (KinTek Explorer) of the single-turnover time course; conditions: for k^+ of sterol binding to P450 51A1 (kon) used for fitting: all kon set at this value; for k^- of oxidation step of the P450-sterol complex: irreversible, set to zero; for k^+ of oxidation step of the P450-sterol complex: label = sterol oxidized in the step
# Text: The initial koff rate constants used in fitting were the koff rates measured in the stopped-flow trap experiments (Fig. 9). All three oxidation reactions are irreversible, and thus k-2, k-4, and k-6 were set to zero.
# Data were imported into KinTek Explorer software (v. 11.01, KinTek, https://kintekcorp.com/software) ([63], [64]) as txt files and processed using an Apple computer (operating system 11.6.2).
# human P450 51A1 [3] = target: T1, human P450 51A1; assay: Steady-state LC-UV assay of sterol oxidation to dihydro FF-MAS by reconstituted P450 51A1
# Method: Steady-state incubations (500 μl) were generally done at 37 °C with 0.025 μM P450 51A1, 0.10 μM NADPH-P450 reductase, 100 μM L-α-dilauroyl-sn-glycero-3-phosphocholine, 50 mM potassium phosphate buffer (pH 7.4), 10% (v/v) glycerol, and an indicated concentration of each sterol (in 45% (w/v) HPCD). […] The sterols (stored at 4 °C) were prepared as described above and were heated to 37 °C and sonicated prior to use. Sterol working stocks were diluted in HPCD to ensure a constant concentration of cyclodextrin in each reaction. […] Accordingly, all reactions were done with this concentration of glycerol.
# Reactions were preincubated (5 min, 37 °C) prior to initiation with an NADPH-regenerating system (0.5 mM NADP^+, 10 mM glucose 6-phosphate, and 2 μg ml^−1 glucose 6-phosphate dehydrogenase) ([60]) and were stopped after 5 min with the addition of CH2Cl2 (5 ml). (The NADPH-generating system, in addition to lower cost than NADPH, drives the reaction to avoid inhibition of the reductase by accumulated NADP^+). For the 14α-aldehyde, the times of preincubation and reaction were reduced (to 2 min and 1 min, respectively). The quenched mixture was centrifuged (2000g, 5 min), and 4 ml of the bottom (organic) layer was transferred to vials and brought to dryness under a stream of N2 gas. The dried residue was resuspended in CH3OH (100 μl) and was analyzed by UPLC using a 2.1 mm × 100 mm (1.7 μm) octadecylsilane (C18) column (held at 25 °C) and a Waters Acquity UPLC system. Samples (4 °C) were injected (10 μl) at a flow rate of 0.20 ml min^−1 using an isocratic mobile phase of CH3CN (only). The product (FF-MAS) was detected using a Waters Acquity photodiode array detector set at 250 nm (Fig. 4B). Data were processed using the MassLynx software (http://www.waters.com/waters/en_US/MassLynx-Mass-Spectrometry-Software-/nav.htm?cid=513164&locale=en_US), and the amount of product formed was calculated by comparison to a twelve-point dihydro FF-MAS standard curve. Determination of kcat and Km for each reaction was carried out by fitting the data to a Michaelis–Menten hyperbola, which was done using GraphPad Prism.
# Incubations were run in triplicate, and the mean values (±SD) were calculated and plotted. The linear regression fits include the Prism error estimates for internal fitting (SE).
# human P450 51A1 [4] = target: T1, human P450 51A1; assay: Spectral (difference spectroscopy) Kd estimates of P450 51A1-sterol complexes; format: binding; set-up: made in house; host or cells: Escherichia coli
# Method: Kd values were estimated by difference spectroscopy. P450 51A1 (1.0 μM) was in each of two glass cuvettes (in 100 mM potassium phosphate buffer, pH 7.4) and a baseline was recorded (OLIS-Amino DW2a). Aliquots of a solution of each sterol–HPCD complex were added to the sample cuvette and an equivalent amount of HPCD was added to the reference cuvette, and spectra were recorded. The time between the collection of individual spectra was ∼3 min. The maximum absorbance difference (usually ΔA390-A418) was plotted versus the nominal concentration of added sterol, and the data were fit to hyperbolae in GraphPad Prism software (GraphPad, https://www.graphpad.com), using a quadratic equation to correct the ligand concentration for the enzyme-bound concentration (used as Y=B+(A/2)∗(1/E)∗((Kd+E+X)-sqrt((Kd + E+X)^∧2-(4∗E∗X)) in Prism software). The linear regression fits include the internal error estimates (SE).
# [5] = 1.0 μM P450 51A1, quadratic fit
smiles,measurement,setting,value
"CC(C)CCCC(C)[C@H]1CC[C@@]2(C=O)C3=C(CC[C@]12C)[C@@]1(C)CC[C@H](O)C(C)(C)C1CC3 (stereo partly drawn) [14α-CHO dihydrolanosterol, 24,25-dihydro-14α-formyl lanosterol]",koff,human P450 51A1 [1],0.059 ± 0.001 s⁻¹
same,k^+ of sterol binding to P450 51A1 (kon) used for fitting,human P450 51A1 [2],2e+06 M⁻¹ s⁻¹
same,k^- of oxidation step of the P450-sterol complex,human P450 51A1 [2],0
same,k^+ of oxidation step of the P450-sterol complex,human P450 51A1 [2]; optimized model,2.5 s⁻¹
same,kcat relative to dihydrolanosterol,human P450 51A1 [3]; oxidation to dihydro FF-MAS,about 3 fold
same,kcat/Km relative to dihydrolanosterol,human P450 51A1 [3]; oxidation to dihydro FF-MAS,about 3 fold
same,Rate of FF-MAS formation (replicates),"human P450 51A1 [3]; substrate 0.25 µM, listed as 14-CHO dihydrolanosterol",2.969 min⁻¹ and 3.528 min⁻¹ and 3.126 min⁻¹
same,Rate of FF-MAS formation (replicates),"human P450 51A1 [3]; substrate 0.50 µM, listed as 14-CHO dihydrolanosterol",7.815 min⁻¹ and 6.139 min⁻¹ and 6.658 min⁻¹
same,Rate of FF-MAS formation (replicates),"human P450 51A1 [3]; substrate 0.75 µM, listed as 14-CHO dihydrolanosterol",11.25 min⁻¹ and 9.099 min⁻¹ and 10.0823 min⁻¹
same,Rate of FF-MAS formation (replicates),"human P450 51A1 [3]; substrate 1.00 µM, listed as 14-CHO dihydrolanosterol",13.4 min⁻¹ and 13.67 min⁻¹ and 13.3 min⁻¹
same,Rate of FF-MAS formation (replicates),"human P450 51A1 [3]; substrate 1.50 µM, listed as 14-CHO dihydrolanosterol",18.85 min⁻¹ and 19.74 min⁻¹ and 19.25 min⁻¹
same,Rate of FF-MAS formation (replicates),"human P450 51A1 [3]; substrate 2.50 µM, listed as 14-CHO dihydrolanosterol",28.46 min⁻¹ and 30.67 min⁻¹ and 32.21 min⁻¹
same,Rate of FF-MAS formation (replicates),"human P450 51A1 [3]; substrate 5.00 µM, listed as 14-CHO dihydrolanosterol",52.7446 min⁻¹ and 50.4 min⁻¹ and 54.73 min⁻¹
same,Rate of FF-MAS formation (replicates),"human P450 51A1 [3]; substrate 7.50 µM, listed as 14-CHO dihydrolanosterol",65.76 min⁻¹ and 62.41 min⁻¹ and 66.11 min⁻¹
same,Rate of FF-MAS formation (replicates),"human P450 51A1 [3]; substrate 10.00 µM, listed as 14-CHO dihydrolanosterol",70.12 min⁻¹ and 63.34 min⁻¹ and 67.78 min⁻¹
same,Rate of FF-MAS formation (replicates),"human P450 51A1 [3]; substrate 15.00 µM, listed as 14-CHO dihydrolanosterol",72.18 min⁻¹ and 76.97 min⁻¹ and 69.96 min⁻¹
same,Kd,human P450 51A1 [4]; [5],sub-μM
same,Kd,"human P450 51A1 [4]; 1.0 μM P450 51A1, quadratic fit, read-out: Kd",120 ± 30 nM
"CC(C)CCCC(C)[C@H]1CC[C@@]2(C)C3=C(CC[C@]12C)[C@@]1(C)CC[C@H](O)C(C)(C)C1CC3 (stereo partly drawn) [dihydrolanosterol, 24,25-dihydrolanosterol]",koff,human P450 51A1 [1],0.054 ± 0.01 s⁻¹
same,k^+ of sterol binding to P450 51A1 (kon) used for fitting,human P450 51A1 [2],2e+06 M⁻¹ s⁻¹
same,k^- of oxidation step of the P450-sterol complex,human P450 51A1 [2],0
same,k^- of sterol binding to P450 51A1 (koff) used for fitting,human P450 51A1 [2]; optimized model,0.075 s⁻¹
same,k^+ of oxidation step of the P450-sterol complex,human P450 51A1 [2]; optimized model,7.5 s⁻¹
same,kcat,"human P450 51A1 [3]; oxidation to dihydro FF-MAS (epi-dihydro FF-MAS from epi substrate), 37 °C",0.50 ± 0.03 s⁻¹ and 0.50 s⁻¹
same,Rate of FF-MAS formation (replicates),human P450 51A1 [3]; substrate 0.25 µM,0.9 min-1 and 1.0 min-1 (2×)
same,Rate of FF-MAS formation (replicates),human P450 51A1 [3]; substrate 0.50 µM,2.4 min-1 (2×) and 2.1 min-1
same,Rate of FF-MAS formation (replicates),human P450 51A1 [3]; substrate 0.75 µM,3.4 min⁻¹ and 3.0 min⁻¹ and 3.7 min⁻¹
same,Rate of FF-MAS formation (replicates),human P450 51A1 [3]; substrate 1.00 µM,4.1 min⁻¹ and 4.3 min⁻¹ and 3.4 min⁻¹
same,Rate of FF-MAS formation (replicates),human P450 51A1 [3]; substrate 1.50 µM,4.8 min⁻¹ and 6.3 min⁻¹ and 5.8 min⁻¹
same,Rate of FF-MAS formation (replicates),human P450 51A1 [3]; substrate 2.50 µM,12.8 min⁻¹ and 12.1 min⁻¹ and 9.4 min⁻¹
same,Rate of FF-MAS formation (replicates),human P450 51A1 [3]; substrate 5.00 µM,16.4 min-1 and 15.6 min-1 (2×)
same,Rate of FF-MAS formation (replicates),human P450 51A1 [3]; substrate 7.50 µM,21.8 min⁻¹ and 17.6 min⁻¹ and 18.3 min⁻¹
same,Rate of FF-MAS formation (replicates),human P450 51A1 [3]; substrate 10.00 µM,20.3 min⁻¹ and 21.5 min⁻¹ and 22.5 min⁻¹
same,Rate of FF-MAS formation (replicates),human P450 51A1 [3]; substrate 15.00 µM,19.1 min⁻¹ and 23.3 min⁻¹ and 21.3 min⁻¹
same,Kd,human P450 51A1 [4],230 ± 100 nM
same,Kd,human P450 51A1 [4]; [5],sub-μM
